Here are results for 11 compounds from DBAASP.

Test systems include Staphylococcus aureus; Escherichia coli; Pseudomonas aeruginosa.
Assay in all cases: ≥ marks a high value that may be exact or a test limit, other limits are often not marked, values filed in µg/mL are converted to µM
Assay [1] has as its system Staphylococcus aureus ATCC 29213.
Assay [2] relates to Escherichia coli ATCC 25922.
For assay [3], the system named is Staphylococcus epidermidis ATCC 12228.

SMILES strings stand for the structures. In brackets after ≈: the same amount, converted by molar mass.

For orientation: MIC means the least concentration at which growth counts as inhibited. Read a low MIC as inhibition by little substance. Turning to `CC[C@H](C)[C@H](NC(=O)[C@H](CCCN=C(N)N)NC(=O)[C@H](CCC(N)=O)NC(=O)[C@H](CCC(N)=O)NC(=O)[C@@H](NC(=O)[C@H](CCCN=C(N)N)NC(=O)[C@H](CCCCN)NC(=O)[C@@H](N)Cc1ccccc1)[C@@H](C)CC)C(=O)N[C@@H](CCCCN)C(=O)N[C@@H](CC(=O)O)C(=O)N[C@@H](Cc1ccccc1)C(=O)N[C@@H](CC(C)C)C(=O)N[C@@H](CCCN=C(N)N)C(=O)O` [FKRIQQRIKDFLR], the MIC was greater than 40 µM in assay [1] and 5 µM (≈ 8.74 µg/mL) in assay [2]. As to `CC[C@H](C)[C@H](NC(=O)CN)C(=O)N[C@@H](CCCCN)C(=O)N[C@@H](CCCCN)C(=O)N[C@@H](Cc1c[nH]c2ccccc12)C(=O)N[C@@H](CC(C)C)C(=O)N[C@@H](Cc1cnc[nH]1)C(=O)N[C@@H](CO)C(=O)N1CCC[C@H]1C(=O)N[C@@H](CCCCN)C(=O)N[C@@H](CCCCN)C(=O)N[C@@H](Cc1ccccc1)C(=O)NCC(=O)N[C@@H](CCCCN)C(=O)N[C@@H](CCCCN)C(=O)N[C@@H](Cc1ccccc1)C(=O)N1CCC[C@H]1C(=O)N[C@@H](CCCCN)C(=O)N[C@@H](CCCCN)C(=O)N[C@H](C(=O)N[C@@H](CCSC)C(=O)N[C@@H](CC(N)=O)C(=O)N[C@@H](CO)C(N)=O)[C@@H](C)CC` [GIKKWLHSPKKFGKKFPKKIMNS], the MIC in assay [2] was greater than 80 µM; in assay [3] it was 10 µM (≈ 27.3 µg/mL). For `CC[C@H](C)[C@H](NC(=O)CN)C(=O)N[C@@H](CCCCN)C(=O)N[C@@H](CCCCN)C(=O)N[C@@H](Cc1c[nH]c2ccccc12)C(=O)N1CCC[C@H]1C(=O)N[C@@H](Cc1cnc[nH]1)C(=O)N[C@@H](CCCCN)C(=O)N1CCC[C@H]1C(=O)N[C@@H](CCCCN)C(=O)N[C@@H](CCCCN)C(=O)N[C@@H](Cc1ccccc1)C(=O)NCC(=O)N[C@@H](CCCCN)C(=O)N[C@@H](CCCCN)C(=O)N[C@@H](Cc1ccccc1)C(=O)N[C@H](C(=O)N[C@@H](CCCCN)C(=O)N[C@@H](CCCCN)C(=O)N[C@H](C(=O)N[C@@H](CCCCN)C(=O)N[C@@H](CC(N)=O)C(=O)N[C@@H](CO)C(N)=O)[C@@H](C)CC)C(C)C` [GIKKWPHKPKKFGKKFVKKIKNS] the same measures were 40 µM (≈ 110 µg/mL) and 10 µM (≈ 27.5 µg/mL). For `CC[C@H](C)[C@H](NC(=O)CN)C(=O)N[C@@H](CCCCN)C(=O)N[C@@H](CCCCN)C(=O)N[C@@H](Cc1c[nH]c2ccccc12)C(=O)N1CCC[C@H]1C(=O)N[C@@H](Cc1cnc[nH]1)C(=O)N[C@@H](CO)C(=O)N1CCC[C@H]1C(=O)N[C@@H](CCCCN)C(=O)N[C@@H](CCCCN)C(=O)N[C@@H](Cc1ccccc1)C(=O)NCC(=O)N[C@@H](CCCCN)C(=O)N[C@@H](CCCCN)C(=O)N[C@@H](Cc1ccccc1)C(=O)N[C@H](C(=O)N[C@@H](CCCCN)C(=O)N[C@@H](CCCCN)C(=O)N[C@H](C(=O)N[C@@H](CCSC)C(=O)N[C@@H](CC(N)=O)C(=O)N[C@@H](CO)C(N)=O)[C@@H](C)CC)C(C)C` [GIKKWPHSPKKFGKKFVKKIMNS] the same measures were 10 µM (≈ 27.1 µg/mL) and 10 µM (≈ 27.1 µg/mL).

`CC[C@H](C)[C@H](NC(=O)[C@H](CCCCN)NC(=O)[C@H](CC(C)C)NC(=O)CNC(=O)[C@H](C)NC(=O)[C@H](CCCCN)NC(=O)[C@H](CC(C)C)NC(=O)[C@H](C)NC(=O)[C@H](CCCCN)NC(=O)CNC(=O)[C@H](CC(C)C)NC(=O)[C@H](Cc1ccccc1)NC(=O)[C@H](CO)NC(=O)[C@H](C)NC(=O)[C@H](CC(C)C)NC(=O)CN)C(=O)NCC(=O)N[C@@H](CO)C(=O)N[C@@H](Cc1cnc[nH]1)C(=O)N[C@@H](CC(C)C)C(=O)N[C@@H](CC(C)C)C(=O)NCC(=O)NCC(=O)N[C@@H](C)C(=O)N1CCC[C@H]1C(=O)N[C@@H](CCC(N)=O)C(=O)N[C@@H](CCC(N)=O)C(=O)O` [GLASFLGKALKAGLKIGSHLLGGAPQQ]: the MIC came to 6 µM (≈ 15.8 µg/mL) in the assay on Staphylococcus aureus and 25 µM (≈ 65.8 µg/mL) in the assay on Escherichia coli. For `CC[C@H](C)[C@H](NC(=O)[C@@H](NC(=O)[C@H](Cc1ccccc1)NC(=O)[C@H](CCCCN)NC(=O)[C@H](C)NC(=O)[C@H](CC(C)C)NC(=O)[C@H](CCCCN)NC(=O)CNC(=O)[C@H](CC(C)C)NC(=O)[C@@H](NC(=O)[C@@H](NC(=O)CNC(=O)[C@H](C)NC(=O)[C@H](C)NC(=O)[C@@H](NC(=O)[C@H](C)NC(=O)[C@H](CCSC)NC(=O)CN)[C@@H](C)O)[C@@H](C)O)[C@@H](C)O)C(C)C)C(=O)NCC(=O)N[C@@H](C)C(=O)N[C@H](C(N)=O)C(C)C` [GMATAAGTTLGKLAKFVIGAV], in that order: greater than 80 µM and greater than 80 µM. Take `CC(=O)N[C@@H](CCCCN)C(=O)N[C@@H](CC(C)C)C(=O)N[C@@H](CC(C)C)C(=O)N[C@@H](CCCCN)C(=O)N[C@@H](CC(C)C)C(=O)N[C@@H](CC(C)C)C(=O)N[C@@H](CCCCN)C(=O)N[C@@H](CCCCN)C(=O)N[C@@H](CC(C)C)C(=O)N[C@@H](CC(C)C)C(=O)N[C@@H](CCCCN)C(=O)N[C@@H](CC(C)C)C(=O)N1CCC[C@H]1C(=O)N[C@@H](CCCCN)C(N)=O` [KLLKLLKKLLKLPK]: the figures for the MIC in assay [1] and in assay [2] were 10 µM (≈ 17.2 µg/mL) and 14.1 µM (≈ 24.3 µg/mL), respectively. Compound `CC[C@H](C)[C@H](NC(=O)[C@H](Cc1ccccc1)NC(=O)[C@H](CO)NC(=O)[C@H](CC(N)=O)NC(=O)[C@H](Cc1c[nH]c2ccccc12)NC(=O)[C@@H](N)CCCCN)C(=O)N[C@@H](CCCCN)C(=O)N[C@@H](CCCCN)C(=O)N[C@@H](CC(C)C)C(=O)N[C@H](C(=O)N[C@@H](CO)C(=O)N[C@@H](CCCCN)C(=O)N[C@@H](Cc1ccccc1)C(=O)N[C@@H](CC(C)C)C(=O)N[C@@H](Cc1cnc[nH]1)C(=O)N[C@@H](CO)C(=O)N[C@@H](C)C(=O)N[C@@H](CCCCN)C(=O)N[C@@H](CCCCN)C(=O)N[C@@H](Cc1ccccc1)C(N)=O)[C@@H](C)O` [KWNSFIKKLTSKFLHSAKKF] came in with an MIC against Pseudomonas aeruginosa of 5.13 µM (≈ 12.5 µg/mL). This lies in the single-digit micromolar range. `CC(C)C[C@H](NC(=O)[C@H](CC(C)C)NC(=O)[C@H](CCCCN)NC(=O)[C@H](CCCCN)NC(=O)[C@H](CC(C)C)NC(=O)[C@H](CC(C)C)NC(=O)[C@H](CCCCN)NC(=O)[C@H](CC(C)C)NC(=O)[C@H](CC(C)C)NC(=O)[C@H](CCCCN)NC(=O)[C@H](CCCCN)NC(=O)[C@@H](N)CC(C)C)C(=O)N[C@@H](CCCCN)C(=O)N[C@@H](C)C(=O)N[C@@H](C)C(=O)NCC(=O)O` [LKKLLKLLKKLLKAAG]: the MIC in assay [1] and in assay [2] was 10 µM (≈ 17.8 µg/mL) in each case. Regarding `CC(C)C[C@H](NC(=O)[C@H](Cc1ccccc1)NC(=O)[C@@H]1CCCN1C(=O)[C@H](Cc1ccc(O)cc1)NC(=O)[C@H](Cc1ccc(O)cc1)NC(=O)[C@H](Cc1ccc(O)cc1)NC(=O)[C@@H]1CCCN1C(=O)[C@H](Cc1ccccc1)NC(=O)[C@H](CCCN=C(N)N)NC(=O)[C@H](CCCN=C(N)N)NC(=O)[C@@H](N)C(C)C)C(=O)N[C@@H](CCCN=C(N)N)C(=O)N[C@@H](CCCN=C(N)N)C(N)=O` [VRRFPYYYPFLRR], the MIC against Staphylococcus aureus came to 12.2 µM (≈ 22.3 µg/mL); in assay [2], 22.6 µM (≈ 41.5 µg/mL); with Escherichia coli, 27.3 µM (≈ 50 µg/mL).

`CC[C@H](C)[C@H](NC(=O)CNC(=O)[C@H](CC(C)C)NC(=O)[C@@H](NC(=O)[C@@H](N)Cc1ccc(O)cc1)[C@@H](C)O)C(=O)N[C@@H](CCCCN)C(=O)N[C@H](C(=O)N[C@@H](CC(C)C)C(=O)N[C@@H](Cc1c[nH]c2ccccc12)C(=O)N[C@@H](CO)C(=O)N[C@@H](C)C(=O)N[C@@H](Cc1ccc(O)cc1)C(=O)N[C@@H](CCCCN)C(=O)N[C@@H](Cc1cnc[nH]1)C(=O)O)[C@@H](C)CC` [YTLGIKILWSAYKH] registered an MIC in assay [3] of 50 µM (≈ 84.7 µg/mL).
